Experimental findings from patent publication US12344597B2, “Alkoxy-substituted pyridinyl derivatives as LPA1 receptor antagonists and their use in the treatment of fibrosis” (IDORSIA PHARMACEUTICALS LTD, priority 2018, dated 2025) are described below.

The target of this assay is human LPA1 receptor (Homo sapiens (Human), UniProt Q92633). Nature of the assay: Beta-arrestin recruitment assay to determine IC50 values for human LPAR1. In kind it is cell-based. As to conditions: antagonist mode, Tango EDG2-bla U2OS cells, LPA 18:1 500 nM final. The text has this:
Beta-Arrestin Recruitment Assay to Determine IC50 Values for Human LPAR1
The Tango™ EDG2-bla U2OS cells are obtained from Invitrogen. These cells contain the human LPA1 receptor cDNA linked to a TEV protease site and a Gal4-VP16 transcription factor integrated into the Tango™ GPCR-bla U2OS parental cell line. This parental cell line stably expresses a beta-arrestin/TEV protease fusion protein and the beta-lactamase (bla) reporter gene under the control of a UAS response element. Upon LPA (agonist) binding, LPA1 receptor gets activated, leading to arrestin-protease recruitment and proteolytic release of the transcription factor: The transcription factor then regulates transcription of a beta-lactamase reporter construct, which is measured upon addition of the live-cell substrate.
10′000 Tango™ EDG2-bla U2OS cells are seeded in a 384-well black with clear bottom plate in 30 μl Freestyle 293 Expression Medium (Invitrogen) and incubated for 20 h at 37° C., 5% CO2. […] IC50 is the concentration of antagonist inhibiting 50% of the maximal response.

Chain of human LPA1 receptor (Q92633 whole entry): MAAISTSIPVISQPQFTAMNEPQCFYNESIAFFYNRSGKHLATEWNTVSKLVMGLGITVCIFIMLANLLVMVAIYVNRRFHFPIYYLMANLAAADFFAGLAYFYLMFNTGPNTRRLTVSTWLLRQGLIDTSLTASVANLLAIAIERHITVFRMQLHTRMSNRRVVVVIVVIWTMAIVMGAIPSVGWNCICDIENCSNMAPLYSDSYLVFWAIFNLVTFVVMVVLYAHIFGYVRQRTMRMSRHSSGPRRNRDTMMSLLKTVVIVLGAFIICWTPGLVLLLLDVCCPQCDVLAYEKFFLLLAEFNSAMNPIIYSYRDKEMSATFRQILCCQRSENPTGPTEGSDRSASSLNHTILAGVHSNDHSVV

`COC(=O)c1cc(CN2CC(C(=O)Nc3ccc(C)nc3OC(F)F)(c3ccccc3C(C)C)C2)ccn1` [Ex 11-50, methyl 4-((3-((2-(difluoromethoxy)-6-methylpyridin-3-yl)carbamoyl)-3-(2-isopropylphenyl)azetidin-1-yl)methyl)picolinate] yielded a 50% inhibitory concentration (IC50) of 47 nM.
Then `Cc1ccc(NC(=O)C2(c3ccccc3C(C)C)CN(Cc3ccnc(C(=O)O)c3)C2)c(OC(F)F)n1` [Ex 11-51, 4-((3-((2-(difluoromethoxy)-6-methylpyridin-3-yl)carbamoyl)-3-(2-isopropylphenyl)azetidin-1-yl)methyl)picolinic acid], with 41 nM.
Compound `COC(=O)c1ccc(CN2CC(C(=O)Nc3ccc(C)nc3OC(F)F)(c3ccccc3C(C)C)C2)cn1` [Ex 11-52, methyl 5-((3-((2-(difluoromethoxy)-6-methylpyridin-3-yl)carbamoyl)-3-(2-isopropylphenyl)azetidin-1-yl)methyl)picolinate] showed a half-inhibitory concentration (IC50) of 79 nM.
The compound `Cc1ccc(NC(=O)C2(c3ccccc3C(C)C)CN(Cc3ccc(C(=O)O)nc3)C2)c(OC(F)F)n1` [Ex 11-53, 5-((3-((2-(difluoromethoxy)-6-methylpyridin-3-yl)carbamoyl)-3-(2-isopropylphenyl)azetidin-1-yl)methyl)picolinic acid] registered an IC50 of 115 nM.
`COC(=O)c1cnc(CN2CC(C(=O)Nc3ccc(C)nc3OC(F)F)(c3ccccc3C(C)C)C2)cn1` [Ex 11-54, methyl 5-((3-((2-(difluoromethoxy)-6-methylpyridin-3-yl)carbamoyl)-3-(2-isopropylphenyl)azetidin-1-yl)methyl)pyrazine-2-carboxylate]: the IC50 came to 95 nM.
For `Cc1ccc(NC(=O)C2(c3ccccc3C(C)C)CN(Cc3cnc(C(=O)O)cn3)C2)c(OC(F)F)n1` [Ex 11-55, 5-((3-((2-(difluoromethoxy)-6-methylpyridin-3-yl)-carbamoyl)3-(2-isopropylphenyl)azetidin-1-yl)methyl)pyrazine-2-carboxylic acid] the value was 142 nM; for `COC(=O)c1ccc(CN2CC(C(=O)Nc3ccc(C)nc3OC(F)F)(c3ccccc3C(C)C)C2)o1` [Ex 11-56, methyl 5-((3-((2-(difluoromethoxy)-6-methylpyridin-3-yl)carbamoyl)-3-(2-isopropylphenyl)azetidin-1-yl)methyl)furan-2-carboxylate], 64 nM.
Compound `Cc1ccc(NC(=O)C2(c3ccccc3C(C)C)CN(Cc3ccc(C(=O)O)o3)C2)c(OC(F)F)n1` [Ex 11-57, 5-((3-((2-(difluoromethoxy)-6-methylpyridin-3-yl)carbamoyl)-3-(2-isopropylphenyl)azetidin-1-yl)methyl)furan-2-carboxylic acid] gave a concentration for half-maximal inhibition (IC50) of 12 nM.
Regarding `CCOC(=O)Cc1coc(CN2CC(C(=O)Nc3ccc(C)nc3OC(F)F)(c3ccccc3C(C)C)C2)n1` [Ex 11-58, ethyl 2-(2-((3-((2-(difluoromethoxy)-6-methylpyridin-3-yl)carbamoyl)-3-(2-isopropylphenyl)azetidin-1-yl)methyl)oxazol-4-yl)acetate], inhibition was half-maximal at 68 nM (IC50).
In turn, `Cc1ccc(NC(=O)C2(c3ccccc3C(C)C)CN(Cc3nc(CC(=O)O)co3)C2)c(OC(F)F)n1` [Ex 11-59, 2-(2-((3-((2-(difluoromethoxy)-6-methylpyridin-3-yl)carbamoyl)-3-(2-isopropylphenyl)azetidin-1-yl)methyl)oxazol-4-yl)acetic acid] came in with a 50% inhibitory concentration (IC50) of 38 nM.
On to `Cc1ccc(NC(=O)C2(c3ccccc3C(C)C)CN(CCCC(C)(C)C#N)C2)c(OC(F)F)n1` [Ex 11-60, 1-(4-cyano-4-methylpentyl)-N-(2-(difluoromethoxy)-6-methylpyridin-3-yl)-3-(2-isopropylphenyl)azetidine-3-carboxamide], for which the IC50 is 47 nM.
In turn, `Cc1ccc(NC(=O)C2(c3ccccc3C(C)C)CN(CCCC(C)(C)[N+](=O)[O-])C2)c(OC(F)F)n1` [Ex 11-61, N-(2-(difluoromethoxy)-6-methylpyridin-3-yl)-3-(2-isopropylphenyl)-1-(4-methyl-4-nitropentyl)azetidine-3-carboxamide] gave an IC50 of 39 nM.
